Measurements from publication PMC4694564 (Molecular pharmaceutics, 2015).

B1: carboxylesterase 1 (CES1) (Homo sapiens) (protein)
chain: GHPSSPPVVDTVHGKVLGKFVSLEGFAQPVAIFLGIPFAKPPLGPLRFTPPQPAEPWSFVKNATSYPPMCTQDPKAGQLLSELFTNRKENIPLKLSEDCLYLNIYTPADLTKKNRLPVMVWIHGGGLMVGAASTYDGLALAAHENVVVVTIQYRLGIWGFFSTGDEHSRGNWGHLDQVAALRWVQDNIASFGGNPGSVTIFGESAGGESVSVLVLSPLAKNLFHRAISESGVALTSVLVKKGDVKPLAEQIAITAGCKTTTSAVMVHCLRQKTEEELLETTLKMKFLSLDLQGDPRESQPLLGTVIDGMLLLKTPEELQAERNFHTVPYMVGINKQEFGWLIPMQLMSYPLSEGQLDQKTAMSLLWKSYPLVCIAKELIPEATEKYLGGTDDTVKKKDLFLDLIADVMFGVPSVIVARNHRDAGAPTYMYEFQYRPSFSSDMKPKTVIGDHGDELFSVFGAPFLKEGASEEEIRLSKMVMKFWANFARNGNPNGEGLPHWPEYNQKEGYLQIGANTQAAQKLKDKEVAFWTNLFAKKAVEKPPQTEHIEL

What was measured:
[1] = target: T1, carboxylesterase 1 (CES1) (Homo sapiens, UniProt P23141); assay: inhibition of recombinant human CES1; format: biochemical
T1 sequence (P23141 18-567): B1 chain

[2] = target: T2, carboxylesterase 2 (CES2) (Homo sapiens, UniProt O00748); assay: inhibition of recombinant human CES2; format: biochemical
T2 sequence (O00748 27-559): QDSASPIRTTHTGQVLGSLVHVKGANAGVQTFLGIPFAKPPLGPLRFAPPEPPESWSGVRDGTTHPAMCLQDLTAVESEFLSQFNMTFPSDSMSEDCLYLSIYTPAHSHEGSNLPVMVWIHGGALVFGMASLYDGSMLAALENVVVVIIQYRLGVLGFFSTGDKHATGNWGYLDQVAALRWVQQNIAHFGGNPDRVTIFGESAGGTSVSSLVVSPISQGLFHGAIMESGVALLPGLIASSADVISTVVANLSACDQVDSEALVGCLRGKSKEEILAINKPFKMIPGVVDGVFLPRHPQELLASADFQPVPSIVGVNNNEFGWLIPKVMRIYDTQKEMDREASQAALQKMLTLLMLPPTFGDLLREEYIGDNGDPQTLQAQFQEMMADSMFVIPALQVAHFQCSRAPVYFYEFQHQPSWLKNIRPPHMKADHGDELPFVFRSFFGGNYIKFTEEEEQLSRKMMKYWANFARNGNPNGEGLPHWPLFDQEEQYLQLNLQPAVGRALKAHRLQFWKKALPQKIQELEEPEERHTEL

purified protein = substrate: CCOC(=O)C1=C[C@@H](OC(CC)CC)[C@H](NC(C)=O)[C@@H](N)C1; assay: purified protein; format: biochemical, Homo sapiens

Molecule	IC50 [1]	IC50 [2]	Km (purified protein)
Cc1cc(OC(=O)NC2CCCCC2)ccc1F [WWL50, 4-fluoro-3-methylphenyl cyclohexylcarbamate]	4.3 ± 0.6 nM	429 ± 2.6 nM	–
B1	–	–	2900 µM
